Experimental data from patent publication US20060121449A1, “Method for selection of compounds which inhibit clonal cell growth and use thereof” (priority 2002, published 2006).
Entries after “also recorded” stand apart in the source; their conditions may differ.

Key:
[1] = tested on: spleen antibody producing cells against sheep red cells; settings: from the literature; cited from earlier work
[2] = tested on: BHK21/c13 (normal baby hamster kidney cells); settings: Tjøtta E. (1968); cited from earlier work
[3] = tested on: polyoma virus transformed BHK21/c13 cells, clone S100T1; experiment: Clonal test: clonal growth of S100T1 cells in soft agar (Exp 2, 4, 6, 15, 16); type: cell-based, hamster; settings: for Significance: Exp 15, 5th day, ” = as line above; for Clonal growth: Exp 15, plate read the 5th day
Procedure: The clonal test comprises: • 1. seeding cells in soft agar optionally containing growth factor(s); • 2. handling or incubation of special gels (e.g. ultra low gelling temperature agarose), including the production of cell density gradients. • 3. incubating in suitable temperature and atmosphere and; • 4. regular monitoring of the cells and development of clones.
The clonal test can be directed in fluid medium or in soft agar medium. Usually only transformed cells will form clones in soft agar.
After seeding and mixing, the tubes were placed in the refrigerator for about 1 hour to consolidate the ultra low melting point agarose.
120000 S100T1 cells of a polyoma virus transformed BHK21/c13 cell line, were seeded in 1 ml soft agar medium in Falcon 50 ml centrifuge tubes. […] On the top of the agar layer 0.5 ml fluid medium was added.
Agar cultures were prepared in wells of 24 well Falcon tissue culture plate. […] Insulin (Actrapid, Novo) was added in a concentration of 0.1 i.u./ml to BHK21/c13 cell cultures only.
The cells were all single cells. Each well received 32000 cells (Table 4). Plate: 24 wells Falcon tissue culture plate received a bottom layer composed as in Table 3:
The cells were all single cells.
The wells contained two layers, each of 0.3 ml agar.
The agarose was added to double distilled water and solved by heating in micro oven.

[4] = tested on: polyoma virus transformed BHK21/c13 cells, line S100T1; experiment: Collocation inhibition test: clonal growth in sparsely and densely seeded areas of a cell density gradient of S100T1 cells in soft agar (Exp 13, 17, 19-26); settings: for Clonal growth, H: high density area of cell gradient, High / Clonal growth, L: low density area of cell gradient, High / Clonal growth, H: high density area of cell gradient, Low / Clonal growth, L: low density area of cell gradient, Low / Clonal growth, H: high density area of cell gradient, Medium / Clonal growth, L: low density area of cell gradient, Medium: 4-OH-OPB analogues, S100T1 in soft agar; for Clonal growth, H: high density area of cell gradient, High / Clonal growth, L: low density area of cell gradient, High: high concentration; for Clonal growth, H: high density area of cell gradient, Low / Clonal growth, L: low density area of cell gradient, Low: low concentration; for Clonal growth, H: high density area of cell gradient, Medium / Clonal growth, L: low density area of cell gradient, Medium: medium concentration; for Clonal growth read on the 3rd day after seeding / Clonal growth read on the 6th day after seeding: Exp 17; for Inhibition of clonal growth of sparsely seeded cells: 117000 S100T1 cells/well; for Clonal inhibition by 4-OH-OPB analogues, summary of Exp 22-25: sparsely seeded areas while densely seeded areas of the same culture showed significant growth;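 for all read-outs here: soft agar cultures in 24-well plates with a cell density gradient in the top layer, compounds applied from DMSO stocks, clonal growth scored in sparse versus dense areas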
[5] = High conc., μM in wells: No 1 (4-OH—OPB) 20, 2 (Colchicine) 0.1, 3 (Diphenylhydantoin) 100, 4 (Podophyllotoxin) 0.3, 5 (Piroxicam) 50, 6 (Diclofenak) 100
[6] = Low conc., μM in wells: No 1 (4-OH—OPB) 2, 2 (Colchicine) 0.01, 3 (Diphenylhydantoin) 10, 4 (Podophyllotoxin) 0.03, 5 (Piroxicam) 5, 6 (Diclofenak) 10, 7 (Ibuprofen) 100, 8 (Naproxen) 50, 9 (Acetylsalicylic acid) 100
[7] = High: #1 Colchicine 1, #2 Podophyllotoxin 3, #3 Etoposide 200, #4 4-OH—OPB 6.7 μM in wells, #5 DMSO 29.2 μl
[8] = Low: #1 Colchicine 0.1, #2 Podophyllotoxin 0.3, #3 Etoposide 20, #4 4-OH—OPB 0.67 μM in wells, #5 DMSO 1.16 μl
[9] = Medium: #1 Colchicine 0.3, #2 Podophyllotoxin 0.9, #3 Etoposide 60, #4 4-OH—OPB 2 μM in wells, #5 DMSO 6.8 μl
[10] = Experiment 23, A (area with high cell density), High concentration, 48 hours
[11] = Experiment 23, A (area with high cell density), Low concentration, 48 hours
[12] = Experiment 23, A (area with high cell density), Medium concentration, 48 hours
[13] = Experiment 23, B (area with low cell density), High concentration, 48 hours
[14] = Experiment 23, B (area with low cell density), Low concentration, 48 hours
[15] = Experiment 23, B (area with low cell density), Medium concentration, 48 hours
[16] = Summary Table 3 of analogue tests (experiments 22-25), H (high cell density), High concentration
[17] = Summary Table 3 of analogue tests (experiments 22-25), H (high cell density), Low concentration
[18] = Summary Table 3 of analogue tests (experiments 22-25), H (high cell density), Medium concentration
[19] = Summary Table 3 of analogue tests (experiments 22-25), L (low cell density), High concentration
[20] = Summary Table 3 of analogue tests (experiments 22-25), L (low cell density), Low concentration
[21] = Summary Table 3 of analogue tests (experiments 22-25), L (low cell density), Medium concentration
[22] = Experiment 22, H: area with high cell density, High concentration
[23] = Experiment 22, H: area with high cell density, Low concentration
[24] = Experiment 22, H: area with high cell density, Medium concentration
[25] = Experiment 22, L: area with low cell density, Low concentration
[26] = Experiment 22, L: area with low cell density, Medium concentration
[27] = High conc., μM in wells: No 1 (4-OH—OPB) 20, 2 (Colchicine) 0.1, 3 (Diphenylhydantoin) 100, 4 (Podophyllotoxin) 0.3, 5 (Piroxicam) 50, 6 (Diclofenak) 100, 7 (Ibuprofen) 1000, 8 (Naproxen) 500, 9 (Acetylsalicylic acid) 1000
[28] = Experiment 22, L: area with low cell density, High concentration

Compound: CN(C)N [1-1-dimethylhydrazine]
- Effect on development of plaques in Jerne's test [1]: enhances development of plaques

Compound: Insulin: Insulin Actrapid (Novo), 0.1 i.u./ml, growth factor
- Stimulation of clonal growth in soft agar culture [2]: stimulate clonal growth of normal, but not transformed cells

Compound: CCCCC(=O)C(=O)Nc1ccccc1 [#3, 2-oxo-hexanoic acid phenylamide]
- Significance [3, 5]: ”
- Significance [3, 6]: ”
- Clonal growth [3, 6]: ++
- Clonal growth, H: high density area of cell gradient, High [4]: ++
- Clonal growth, L: low density area of cell gradient, High [4]: ++
- Clonal growth, H: high density area of cell gradient, Low [4]: ++(+)
- Clonal growth, L: low density area of cell gradient, Low [4]: ++(+)
- Clonal growth, H: high density area of cell gradient, Medium [4]: ++(+)
- Clonal growth, L: low density area of cell gradient, Medium [4]: ++(+)
- Clonal growth read on the 3rd day after seeding [4, 7]: (+)
- Clonal growth read on the 6th day after seeding [4, 7]: −
- Clonal growth read on the 6th day after seeding [4, 8]: +
- Clonal growth read on the 3rd day after seeding [4, 9]: (+)
- Effect on growth ([4]; Exp 23, 180000 S100T1 cells/well): did not show significant growth inhibition at all
- Clonal growth [4, 10]: ++
- Clonal growth [4, 11]: ++(+)
- Clonal growth [4, 12]: ++(+)
- Clonal growth [4, 13]: ++
- Clonal growth [4, 14]: ++(+)
- Clonal growth [4, 15]: ++(+)
- Clonal growth [4, 16]: ++
- Clonal growth [4, 17]: ++(+)
- Clonal growth [4, 18]: ++(+)
- Clonal growth [4, 19]: ++
- Clonal growth [4, 20]: ++(+)
- Clonal growth [4, 21]: ++(+)

Compound: CCCCC(C(=O)Nc1ccccc1)C(=O)Nc1ccc(O)cc1 (stereo not drawn) [#4, 2-Butyl-N-(4-hydroxy-phenyl)-N′-phenylmalonamide]
- Significance [3, 5]: probably
- Significance [3, 6]: ”
- Clonal growth, H: high density area of cell gradient, High [4]: ++
- Clonal growth, L: low density area of cell gradient, High [4]: ((+))
- Clonal growth, H: high density area of cell gradient, Low [4]: ++
- Clonal growth, L: low density area of cell gradient, Low [4]: ++
- Clonal growth, H: high density area of cell gradient, Medium [4]: ++
- Clonal growth, L: low density area of cell gradient, Medium [4]: ++
- Clonal growth read on the 3rd day after seeding [4, 7]: −
- Clonal growth read on the 6th day after seeding [4, 7]: ((+))
- Clonal growth read on the 3rd day after seeding [4, 8]: +
- Clonal growth read on the 6th day after seeding [4, 8]: +
- Clonal growth read on the 3rd day after seeding [4, 9]: −
- Clonal growth read on the 6th day after seeding [4, 9]: ((+))
- Inhibition of clonal growth of sparsely seeded cells ([4]; Exp 22): smaller effect; also recorded: showed an effect, but even higher concentration was needed than for #6
- Clonal growth [4, 22]: ++
- Clonal growth [4, 23]: ++
- Clonal growth [4, 24]: ++
- Clonal growth [4, 25]: ++
- Clonal growth [4, 26]: ++
- Clonal growth [4, 16]: ++
- Clonal growth [4, 17]: ++
- Clonal growth [4, 18]: ++
- Clonal growth [4, 20]: ++
- Clonal growth [4, 21]: ++

Compound: O=C1N(c2ccccc2)N(c2ccccc2)C(=O)C1(O)CC[S+]([O-])c1ccccc1 (stereo not drawn) [#6, 1,2-diphenyl-4-hydroxy-4-[2-(phenylsulfinyl)ethyl]-3,5-pyrazolidinedione]
- Significance [3, 5]: ”
- Significance [3, 6]: probably*
- Clonal growth [3, 27]: ++
- Clonal growth, H: high density area of cell gradient, High [4]: ++
- Clonal growth, L: low density area of cell gradient, High [4]: −
- Clonal growth, H: high density area of cell gradient, Low [4]: ++
- Clonal growth, L: low density area of cell gradient, Low [4]: ++
- Clonal growth, H: high density area of cell gradient, Medium [4]: ++
- Clonal growth, L: low density area of cell gradient, Medium [4]: ((+))
- Effect at low concentration ([4]; Exp 22): no effect was observed
- Inhibition of clonal growth of sparsely seeded cells ([4]; Exp 22): best inhibitor of clonal growth of sparsely seeded cells
- Clonal growth [4, 22]: ++
- Clonal growth [4, 23]: ++
- Clonal growth [4, 24]: ++
- Clonal growth [4, 28]: −
- Clonal growth [4, 25]: ++
- Clonal growth [4, 16]: ++
- Clonal growth [4, 17]: ++
- Clonal growth [4, 18]: ++
- Clonal growth [4, 19]: −
- Clonal growth [4, 20]: ++
- Clonal inhibition by 4-OH-OPB analogues, summary of Exp 22-25 [4]: complete inhibition of growth in sparsely seeded areas

Compound: CCCCC1(O)C(=O)N(c2ccccc2)N(c2ccc(OC)cc2)C1=O (stereo not drawn) [#7, 4-(1-butyl)-4-hydroxy-1-(4-methoxyphenyl)-2-phenyl-3,5-pyrazolidinedione]
- Significance [3, 6]: no
- Clonal growth [3, 27]: −
- Clonal growth, H: high density area of cell gradient, High [4]: ++
- Clonal growth, L: low density area of cell gradient, High [4]: (+)
- Clonal growth, H: high density area of cell gradient, Low [4]: ++
- Clonal growth, L: low density area of cell gradient, Low [4]: ++
- Clonal growth, H: high density area of cell gradient, Medium [4]: ++
- Clonal growth, L: low density area of cell gradient, Medium [4]: ++
- Inhibition of clonal growth of sparsely seeded cells ([4]; Exp 22): smallest effect; also recorded: might have a small similar effect
- Clonal growth [4, 22]: ++
- Clonal growth [4, 23]: ++
- Clonal growth [4, 24]: ++
- Clonal growth [4, 28]: (+)
- Clonal growth [4, 25]: ++
- Clonal growth [4, 26]: ++
- Clonal growth [4, 16]: ++
- Clonal growth [4, 17]: ++
- Clonal growth [4, 18]: ++
- Clonal growth [4, 19]: (+)
- Clonal growth [4, 20]: ++
- Clonal growth [4, 21]: ++

Compound: CCCCC(O)(C(=O)Nc1ccccc1)C(=O)Nc1ccc(O)cc1 (stereo not drawn) [#2, 2-Butyl-2-hydroxy-N-(4-hydroxy-phenyl)-N′-phenyl malonamide]
- Significance [3, 5]: no
- Significance [3, 6]: no
- Clonal growth [3, 6]: ++
- Clonal growth, H: high density area of cell gradient, High [4]: ++
- Clonal growth, L: low density area of cell gradient, High [4]: −
- Clonal growth, H: high density area of cell gradient, Low [4]: ++(+)
- Clonal growth, L: low density area of cell gradient, Low [4]: ++
- Clonal growth, H: high density area of cell gradient, Medium [4]: ++
- Clonal growth, L: low density area of cell gradient, Medium [4]: ++
- Clonal growth read on the 6th day after seeding [4, 8]: +
- Clonal growth read on the 6th day after seeding [4, 9]: (+
- Clonal growth [4, 10]: ++
- Clonal growth [4, 11]: ++(+)
- Clonal growth [4, 12]: ++
- Clonal growth [4, 13]: −
- Clonal growth [4, 14]: ++
- Clonal growth [4, 15]: ++
- Clonal growth [4, 16]: ++
- Clonal growth [4, 17]: ++(+)
- Clonal growth [4, 18]: ++
- Clonal growth [4, 19]: −
- Clonal growth [4, 20]: ++
- Clonal growth [4, 21]: ++
- Clonal inhibition by 4-OH-OPB analogues, summary of Exp 22-25 [4]: complete inhibition of growth in sparsely seeded areas
